From patent publication US12226386B2, “Compositions and methods for treating biofilms” (The Regents of the University of California, priority 2018, dated 2025)
Like-named read-outs stand apart in the source and are kept apart here.

Columns and labels:
C. albicans biofilms = experiment: in vitro biofilm disruption assay, fungal; assay type: cell-based, Candida albicans; settings: 1% amino acid, p<0.001
Procedure: Two types of biofilm assays were performed: a sustained inhibition assay and a disruption assay.
(§1) For fungal biofilm assays, all solutions were prepared in RPMI 1640 medium. All bacterial biofilm solutions were prepared in Tryptic Soy Broth (TSB), supplemented with 1% glucose (henceforth referred to as TSB-G). All subsequent procedures were performed in a manner that maintained sterility. A solution of each amino acid to be tested was prepared in weight to volume concentrations ranging from 0.1-5.0%. Amino acids were also tested in combinations. Compound solutions were homogenized with gentle agitation in the dark (4° C., 24 hours) before use.
Fungal strains were streaked on Yeast Peptone Dextrose (YPD) agar plates and incubated at 30° C. for 48 hours. A single colony from each strain to be tested was inoculated into YPD broth and grown for 12 hours, at 30° C., shaking at 225 rpm. For the fungal biofilm inhibition assay, 1 μl of saturated overnight cell culture was added to either 80 μL of RPMI-1640 or RPMI-1640 supplemented with the amino acid compound solution to be tested, in a 384-well plate. […] Media was carefully aspirated and the biofilm was measured by optical density at 600 nm. Twelve replicates were performed for each tested condition and the reported values are normalized to the control (RPMI-1640 media only). For the fungal biofilm disruption assays, 80 μL of RPMI-1640 was added to the plate, along with 1 μL of overnight cell culture. […] Loosely bound cells were washed once with PBS and 80 μL of RPMI-1640 was added to the plate. […] Media was carefully aspirated from the mature biofilm and 80 μL of RPMI-1640, or RPMI-1640 supplemented with the amino acid compound solution to be tested, was gently added to the plate. […] Media was carefully aspirated and the biofilm was measured by optical density at 600 nm. Twelve replicates were performed for each tested condition and the reported values are normalized to the control (RPMI-1640 media only).
The cells were allowed to adhere to the plate for 90 minutes at 37° C. with shaking (350 rpm). […] The plate was further incubated for 24 hours at 37° C. with shaking (350 rpm). […] The plate was further incubated for 24 hours at 37° C. with shaking (350 rpm). Media was carefully aspirated and the biofilm was measured by optical density at 600 nm.

[1] = system: S. aureus (MRSA) biofilms; experiment: in vitro biofilm disruption assay, bacterial; assay type: cell-based; settings: Staphylococcus aureus, 24 h
Procedure: In vitro biofilm formation was tested using two assays, sustained inhibition and disruption. Both assays assess biofilm formed on polystyrene plates. The first, tests the effects of amino acid solution on a developing biofilm, while the latter tests the effects of the solution on a pre-formed mature biofilm, both compared to media without supplemented amino acids.
Other amino acids in the blood of animals could combat bacterial and fungal biofilm and therefore may be useful in treating these bacterial and fungal infections that would lie on the external surfaces of infected animals such as humans and could also be used to combat these pathogens on instruments and surfaces that need to be treated. Two types of biofilm assays were performed: a sustained inhibition assay and a disruption assay. The sustained inhibition assay assessed the compound's ability to prevent biofilm development throughout all stages of biofilm formation, while the disruption assay assessed the compound's ability to break up an existing mature biofilm.
as §1
Bacterial strains were streaked on Blood Agar plates (5% sheep blood in Tryptic Soy Agar) and incubated at 37° C. for 24 hours. A single colony from each strain to be tested was inoculated in a TSB broth and grown for 12 hours, at 37° C. shaking at 225 rpm. For the bacterial biofilm inhibition assays, 1 μL of saturated overnight cell culture was added to either 80 μL of TSB-G, or TSB-G supplemented with the amino acid compound solution to be tested, in a 384-well plate. The cells were allowed to adhere to the plate for 60 minutes at 37° C. without shaking. The media was carefully aspirated and 80 μL of TSB-G, or TSB-G supplemented with the amino acid compound solution was added to the plate. The plate was further incubated for 24 hours at 37° C. without shaking. Media was carefully aspirated and the biofilm was measured by optical density at 600 nm. Eight or twelve replicates were performed for each tested condition and the reported values are normalized to the control (TSB-G media only). For the bacterial biofilm disruption assays, 80 μL of TSB-G was added to the plate, along with 1 μL of overnight cell culture. The cells were allowed to adhere to the plate for 60 minutes at 37° C. with no shaking. The media was carefully aspirated and 80 μL of TSB-G was added to the plate. The plate was further incubated for 24 hours at 37° C. with no shaking. Media was carefully aspirated from the mature biofilm and 80 μL of TSB-G, or TSB-G supplemented with the amino acid to be tested, was gently added to the plate. The plate was further incubated for 24 hours at 37° C. without shaking. Media was aspirated and the biofilm was measured by optical density at 600 nm. Twelve replicates were performed for each tested condition and the reported values are normalized to the control (TSB-G media only).
For disruption assay, 80 μl of TSB-G was added to the plate, along with 1 μl of overnight cell culture. The cells were allowed to adhere to the plate for 60 minutes at 37° C. with no shaking. The media was carefully aspirated and 80 μl of TSB-G was added to the plate. The plate was further incubated for 24 hours at 37° C. with no shaking. Media was carefully aspirated from the mature biofilm and 80 μl of TSB-G, or TSB-G supplemented with the amino acid to be tested, was added drop wise to the plate. The plate was further incubated for 24 hours at 37° C. with no shaking. […]

[2] = disruption, S. aureus, 1% amino acid, p<0.001, read-out: Reduce B Biofilm

SMILES: N[C@@H](CC(=O)O)C(=O)O [Aspartic Acid, L-aspartic acid]
- Reduce F Biofilm (C. albicans biofilms): ●● (two dots [i.e. ●●] signifies major effect (greater than about 30% change))
- inhibition at 1 % [1, 2]: > 30%

SMILES: N[C@@H](CS)C(=O)O [Cysteine, L-cysteine]
- Reduce F Biofilm (C. albicans biofilms): ●● (two dots [i.e. ●●] signifies major effect (greater than about 30% change))
- inhibition at 1 % [1, 2]: > 30%

SMILES: N[C@@H](CCC(=O)O)C(=O)O [Glutamic Acid, L-glutamic acid]
- Reduce F Biofilm (C. albicans biofilms): ●● (two dots [i.e. ●●] signifies major effect (greater than about 30% change))
- inhibition at 1 % ([1]; read-out: Reduce B Biofilm): > 30%
